Assays:
[1] = molecular target: T1, RNAP CH-σ (B. subtilis RpoC clamp-helix domain and full-length SigA) (Bacillus subtilis, UniProt P37871); assay: split-luciferase (NanoLuc) protein-protein interaction inhibition; assay type: binding
T1 construct: RpoC clamp-helix domain 220-315 with SmBiT NanoLuc tag (N-terminal, pCU252); full-length SigA with LgBiT NanoLuc tag (C-terminal, pCU251); purified recombinant; tags kept; with RNA polymerase sigma factor SigA

[2] = molecular target: T1, RNAP CH-σ (B. subtilis RpoC clamp-helix domain and full-length SigA); assay: as above; assay type: biochemical
From the text: split-luciferase (NanoLuc) protein-protein interaction inhibition on RNAP CH-σ (B. subtilis RpoC clamp-helix domain and full-length SigA)

## Nc1ccccc1Sc1ccc(C(=O)c2ccccc2C(=O)O)cc1[N+](=O)[O-] [C3-001, 2-(4-((2-Aminophenyl)thio)-3-nitrobenzoyl)benzoic Acid]
[1]
  IC50: 6.4 ± 0.71 µM
[2]
  inhibition at 10 µM: 62.2 ± 2.6%

## Nc1cccc(Sc2ccc(C(=O)c3ccccc3C(=O)O)cc2[N+](=O)[O-])c1 [C3-002, 2-(4-((3-Aminophenyl)thio)-3-nitrobenzoyl)benzoic Acid]
[2]
  inhibition at 10 µM: 81.3 ± 4.9%

## Nc1ccc(Sc2ccc(C(=O)c3ccccc3C(=O)O)cc2[N+](=O)[O-])cc1 [C3-003, 2-(4-((4-Aminophenyl)thio)-3-nitrobenzoyl)benzoic Acid]
[2]
  inhibition at 10 µM: 69.1 ± 10.7%

## Nc1cc(Cl)ccc1Sc1ccc(C(=O)c2ccccc2C(=O)O)cc1[N+](=O)[O-] [C3-004, 2-(4-((2-Amino-4-chlorophenyl)thio)-3-nitrobenzoyl)benzoic Acid]
[2]
  inhibition at 10 µM: 60.5 ± 16.5%

## O=C(O)c1ccccc1C(=O)c1ccc(Sc2ccc(Cl)c(Cl)c2)c([N+](=O)[O-])c1 [C3-005, 2-(4-((3,4-Dichlorophenyl)thio)-3-nitrobenzoyl)benzoic Acid]
[2]
  inhibition at 10 µM: 81.7 ± 0.9%

From article PMC6719014, “First-In-Class Inhibitors Targeting the Interaction between Bacterial RNA Polymerase and Sigma Initiation Factor Affect the Viability and Toxin Release of Streptococcus pneumoniae” (Molecules, 2019)
